Molecular target: T1, Human M4 receptors (Homo sapiens, UniProt P08173)
T1 construct: expressed in transfected cells
T1 sequence (P08173 1-479): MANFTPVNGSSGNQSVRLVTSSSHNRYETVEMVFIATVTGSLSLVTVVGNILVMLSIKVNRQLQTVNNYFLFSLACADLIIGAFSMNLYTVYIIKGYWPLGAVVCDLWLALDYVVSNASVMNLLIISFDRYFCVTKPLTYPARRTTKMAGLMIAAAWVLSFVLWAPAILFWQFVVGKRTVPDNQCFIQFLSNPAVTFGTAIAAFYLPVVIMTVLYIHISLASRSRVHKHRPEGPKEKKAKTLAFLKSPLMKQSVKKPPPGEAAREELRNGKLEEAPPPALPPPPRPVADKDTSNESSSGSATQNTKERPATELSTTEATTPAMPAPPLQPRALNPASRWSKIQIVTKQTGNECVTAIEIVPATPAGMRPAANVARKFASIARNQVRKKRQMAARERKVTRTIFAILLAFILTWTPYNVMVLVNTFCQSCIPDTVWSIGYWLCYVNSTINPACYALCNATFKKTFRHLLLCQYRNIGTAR
Assay: M4 PAM cAMP assay (GloSensor)
Type: cell-based
Settings: HEK293 GloSensor cells expressing hM4, with EC20 acetylcholine and isoproterenol, geometric mean of 2-4 determinations unless footnoted (b: >=5, c: single); for Emax / EC50 Mean Asymptote Maximum (%): Emax = maximum asymptote of fitted dose response curve; for Emax: read-out: EC50 Mean Asymptote Maximum (%)
Method: The M4 cAMP assay was designed to determine the potency and efficacy of muscarinic positive allosteric modulators (PAMs). Human M4 receptors were stably expressed in Human embryonic kidney (HEK293) cells expressed with the Promega GloSensor™ cAMP technology.
HEK293 GloSensor cells expressing hM4 cells were cultured in growth media containing DMEM with 10% FBS, 1% Penicillin/Streptomycin, 500 μg/mL G418, 200 μg/mL Hygomycin B, and 1% Glutamax. When cells had grown to 80%-90% confluency, cells were harvested and seeded at a density of 25,000 cells/40 μL well, in a 384 white walled plates (Becton Dickinson 356661). Plates were incubated at 37 degrees C. and 5% CO2 for use after 24 hours.
Compound Preparation for Activator Screen:
Test compounds were initially prepared as 100% DMSO stock solutions, then transferred and serially diluted in 384-well compound plates (Matrix #4325). Each compound was tested at 10 concentrations in duplicate per experiment. Compound plates are spotted with 0.2 μL/well activator at 400 times the final assay concentration. Positive and negative controls for the compound alone activator response was 10 μM acetylcholine (Sigma # A2661) and DMSO, respectively. EC20 of acetylcholine was also used to define PAM activities.
Promega GloSensor™reagent (Promega # E1291) had previously been aliquotted. For each experiment, a stock solution of GloSensor™ was thawed out and equilibration medium was prepared with 88% CO2-independent media (Invitrogen #18045088), 10% fetal bovine serum and 2% GloSensor™ cAMP Reagent stock solution. Stock solution was mixed. Culture media in cell plates was discarded, then replaced with 40 μL/well pre-warmed equilibration media, then incubated in the dark at room temperature for 2 hours. During the incubation, stimulation media containing agonist and EC20 acetylcholine was prepared. CO2-independent media containing 50 […] Isoproterenol representing an EC80 of b-adrenergic receptor activity (Sigma #16504, 400 times final concentration) and EC20 acetylcholine in 1.25% DMSO was added to all columns of the compound plate, with the exception of column 12 to allow for EC0 control. […] Compounds are now 5 times the final assay concentration. The plate was mixed using a plate agitator. At the end of the 2 hour GloSensor™ incubation, add 10 μL of the CO2-independent media containing agonist, EC20 acetylcholine and isoproterenol to the cell plate. Cell plate was then incubated for 10 minutes at room temperature, and then read using an EnVision plate reader (Perkin Elmer).
Data was exported from the EnVision plate reader. The percent effect for each well was determined using the mean values for the positive and negative controls on each plate for each read, specifically 100*(compound−negative control)/(positive control−negative control). Dose response curves were fitted to the compound percent effect data using a 4-parameter logistic fit model. Data was reported as EC50 and Emax, with the Emax as the maximum asymptote of the fitted dose response curve.

SMILES | EC50 | Emax | EC50 Mean Asymptote Maximum (%)
CNc1nc(C)c(C)c2c1CN(C(=O)C[C@@H]1C[C@H]1c1ccc(C)nc1)C2 (single isomer, unassigned) [Example 46, 1-[6,7-dimethyl-4-(methylamino)-1,3-dihydro-2H-pyrrolo[3,4-c]pyridin-2-yl]-2-[trans-2-(6-methylpyridin-3-yl)cyclopropyl]ethanone] | > 10000 nM | – | –
CNc1nc(C)c(C)c2c1CN(C(=O)C[C@@H]1C[C@H]1c1ccc(C)nc1)C2 (single isomer, unassigned) [Example 47, 1-[6,7-dimethyl-4-(methylamino)-1,3-dihydro-2H-pyrrolo[3,4-c]pyridin-2-yl]-2-[trans-2-(6-methylpyridin-3-yl)cyclopropyl]ethanone] | 2.05 nM | 115% | –
CNc1nc(C)c(C)c2c1CN(C(=O)CC1CN(c3ccnc(OC(F)F)c3)C1)C2C (single isomer, unassigned) [Example 49, 2-{1-[2-(difluoromethoxy)pyridin-4-yl]azetidin-3-yl}-1-[1,6,7-trimethyl-4-(methylamino)-1,3-dihydro-2H-pyrrolo[3,4-c]pyridin-2-yl]ethanone] | 754 nM | – | 140^c %
CNc1nc(C)c(C)c2c1CN(C(=O)CC1Cc3ccc(F)cc3C1)C2 (single isomer, unassigned) [Example 57, 1-[6,7-dimethyl-4-(methylamino)-1,3-dihydro-2H-pyrrolo[3,4-c]pyridin-2-yl]-2-(5-fluoro-2,3-dihydro-1H-inden-2-yl)ethanone] | 30.9 nM | 97% | –
Cc1c2c(c(=O)n(C)c1C)CN(C(=O)CC1CN(c3cccnc3)C1)C2 [Example 1, 5,6,7-Trimethyl-2-{[1-(pyridin-3-yl)azetidin-3-yl]acetyl}-1,2,3,5-tetrahydro-4H-pyrrolo[3,4-c]pyridin-4-one] | 8.62 nM | 90.9% | –
CNc1nc(C)c(C)c2c1CN(C(=O)CC1CN(c3ncns3)C1)C2 [Example 2, 1-[6,7-Dimethyl-4-(methylamino)-1,3-dihydro-2H-pyrrolo[3,4-c]pyridin-2-yl]-2-[1-(1,2,4-thiadiazol-5-yl)azetidin-3-yl]ethanone] | 4.33 nM | 96.1% | –
CNc1nc(C)c(C)c2c1CN(C(=O)CC1CN(c3ccnc(OC(F)F)c3)C1)C2 [Example 3, 2-{1-[2-(Difluoromethoxy)pyridin-4-yl]azetidin-3-yl}-1-[6,7-dimethyl-4-(methylamino)-1,3-dihydro-2H-pyrrolo[3,4-c]pyridin-2-yl]ethanone] | 2.91 nM | 106% | –
CNc1nc(C)c(C)c2c1CN(C(=O)CC1CN(c3cccnc3)C1)C2 [Example 4, 1-[6,7-Dimethyl-4-(methylamino)-1,3-dihydro-2H-pyrrolo[3,4-c]pyridin-2-yl]-2-[1-(pyridin-3-yl)azetidin-3-yl]ethanone] | 1.76 nM | 95.8% | –
CNc1nc(C)c(C)c2c1CN(C(=O)OC1CN(c3cccnc3)C1)C2 [Example 5, 1-(Pyridin-3-yl)azetidin-3-yl 6,7-dimethyl-4-(methylamino)-1,3-dihydro-2H-pyrrolo[3,4-c]pyridine-2-carboxylate] | 1.22 nM | 96.8% | –
Cc1nc(-c2cnn(C)c2)c2c(c1C)CN(C(=O)CC1CN(c3cccnc3)C1)C2 [Example 13, 1-[6,7-dimethyl-4-(1-methyl-1H-pyrazol-4-yl)-1,3-dihydro-2H-pyrrolo[3,4-c]pyridin-2-yl]-2-[1-(pyridin-3-yl)azetidin-3-yl]ethanone] | 20.6 nM | 87.5% | –
Cc1nc(NCC2CC2)c2c(c1C)CN(C(=O)CC1CN(c3ccncn3)C1)C2 [Example 22, 1-{4-[(cyclopropylmethyl)amino]-6,7-dimethyl-1,3-dihydro-2H-pyrrolo[3,4-c]pyridin-2-yl}-2-[1-(pyrimidin-4-yl)azetidin-3-yl]ethanone] | 0.626 nM | 99.7% | –
CNc1nc(C)c(C)c2c1CN(C(=O)CC1CN(c3ccncn3)C1)C2 [Example 23, 1-[6,7-dimethyl-4-(methylamino)-1,3-dihydro-2H-pyrrolo[3,4-c]pyridin-2-yl]-2-[1-(pyrimidin-4-yl)azetidin-3-yl]ethanone] | 1.44 nM | 95.9% | –

Now from value to compound:

EC50 | Emax | EC50 Mean Asymptote Maximum (%) | SMILES
9.88 nM | – | 104^c % | CNc1nc(C)c(C)c2c1CN(C(=O)CC1CN(c3ccnc(OC(F)F)c3)C1)C2C (single isomer, unassigned) [Example 50, 2-{1-[2-(difluoromethoxy)pyridin-4-yl]azetidin-3-yl}-1-[1,6,7-trimethyl-4-(methylamino)-1,3-dihydro-2H-pyrrolo[3,4-c]pyridin-2-yl]ethanone]
50.6 nM | 92% | – | CNc1nc(C)c(C)c2c1CN(C(=O)OC1Cc3cccnc3C1)C2 (centres unmarked) [Example 6, 6,7-Dihydro-5H-cyclopenta[b]pyridin-6-yl 6,7-dimethyl-4-(methylamino)-1,3-dihydro-2H-pyrrolo[3,4-c]pyridine-2-carboxylate]
19.9 nM | 89.3% | – | Cc1nc(C)c2c(c1C)CN(C(=O)CC1CN(c3cccnc3)C1)C2 [Example 12, 2-[1-(Pyridin-3-yl)azetidin-3-yl]-1-(4,6,7-trimethyl-1,3-dihydro-2H-pyrrolo[3,4-c]pyridin-2-yl)ethanone]
18.5 nM | 99.4% | – | Cc1nc(CN(C)C)c2c(c1C)CN(C(=O)CC1CN(c3cccnc3)C1)C2 [Example 14, 1-{4-[(dimethylamino)methyl]-6,7-dimethyl-1,3-dihydro-2H-pyrrolo[3,4-c]pyridin-2-yl}-2-[1-(pyridin-3-yl)azetidin-3-yl]ethanone]
17.9 nM | 102% | – | Cc1nc(N(C)C)c2c(c1C)CN(C(=O)CC1CN(c3cccnc3)C1)C2 [Example 17, 1-[4-(dimethylamino)-6,7-dimethyl-1,3-dihydro-2H-pyrrolo[3,4-c]pyridin-2-yl]-2-[1-(pyridin-3-yl)azetidin-3-yl]ethanone]
23.6 nM | 91.7% | – | Cc1nc(C(F)F)c2c(c1C)CN(C(=O)CC1CN(c3cccnc3)C1)C2 [Example 18, 1-[4-(difluoromethyl)-6,7-dimethyl-1,3-dihydro-2H-pyrrolo[3,4-c]pyridin-2-yl]-2-[1-(pyridin-3-yl)azetidin-3-yl]ethanone]
1.23 nM | 92.3% | – | CNc1nc(C)c(C)c2c1CN(C(=O)CC1CN(c3cncnc3)C1)C2 [Example 19, 1-[6,7-dimethyl-4-(methylamino)-1,3-dihydro-2H-pyrrolo[3,4-c]pyridin-2-yl]-2-[1-(pyrimidin-5-yl)azetidin-3-yl]ethanone]
30.4 nM | 95.1% | – | Cc1nc(N(C)C)c2c(c1C)CN(C(=O)CC1CN(c3cncnc3)C1)C2 [Example 20, 1-[4-(dimethylamino)-6,7-dimethyl-1,3-dihydro-2H-pyrrolo[3,4-c]pyridin-2-yl]-2-[1-(pyrimidin-5-yl)azetidin-3-yl]ethanone]
8.72 nM | 99.7% | – | Cc1[nH]c(=O)c2c(c1C)CN(C(=O)CC1CN(c3cccnc3)C1)C2 [Example 21, 6,7-dimethyl-2-{[1-(pyridin-3-yl)azetidin-3-yl]acetyl}-1,2,3,5-tetrahydro-4H-pyrrolo[3,4-c]pyridin-4-one]

Source: patent publication US11198692B2, “Dihydro-pyrrolo-pyridine derivatives” (Pfizer Inc., priority 2017, dated 2021)
